We go through eight compounds from paper PMC10215404, “Effect of Indole-Containing Pyrazino[2,1-b]quinazoline-3,6-diones in the Virulence of Resistant Bacteria” (Antibiotics, 2023).

Values after ≈ are worked out from the molar mass of the structure shown. Values joined by “and” are separate entries in the source; they are usually repeats but may differ in a detail not shown here. Equal entries are not always repeated.

The test system of one assay is S. aureus 272123. Description: Real-time ethidium bromide accumulation assay (efflux pump inhibition). The note with it: minute 60.
The next assay deals with S. aureus MRSA 272123. The experiment in a line: MIC determination, broth microdilution. Format: cell-based. The note with it: Staphylococcus aureus. An excerpt: Both reference and resistant strains used in this work were employed by our group for the screening of different families of compounds, such as xanthones and thioxanthones.
A further assay concerns E. coli AG100A. The experiment in a line: Real-time ethidium bromide accumulation assay (efflux pump inhibition). The note with it: compound at 50 μM, minute 60.
The subject of assay [1] is E. coli AG100. Described as above. The note with it: compound at 50 μM, minute 60.
Assay [2] relates to E. coli AG100. Description: Biofilm formation, crystal violet method. Format: cell-based, Escherichia coli. The note with it: 50 μM. As for the experimental part:
The antibiofilm effect of the tested compounds was evaluated using the crystal violet method on E. coli AG100, E. coli AG100A, and MRSA 272123. […] CCCP was used as a positive control.
The biofilm-forming ability of the S. aureus strains was studied in 96-well microtiter plates using TSB broth in the presence of compounds. The biofilm-forming ability of the E. coli strains was studied in 96-well microtiter plates using LB broth in the presence of the compounds. […] The final volume was 200 μL in each well. The positive control was CCCP at 50 µM. Plates were incubated for 48 h at 30 °C with gentle shaking at 100 rpm. After the incubation period, the medium was removed and the plate was washed with water to remove unattached cells. A total of 200 μL CV (0.1% [v/v]) was added to each wells and incubated for 15 min at room temperature. CV was discarded from the wells and the plate was washed with water again. Then, 200 μL of 70% ethanol was added to each well and the biofilm formation was determined by measuring the OD at 600 nm using a Multiscan EX ELISA plate reader (Thermo Labsystems, Cheshire, WA, USA). The antibiofilm effect of the compounds was expressed as the percentage (%) decrease in biofilm formation.

Assay [3] concerns NIH/3T3 mouse fibroblast cell line. Description: Cytotoxicity assay (MTT). Format: cell-based. Conditions: NIH3T3, 24 h. As to the method: The effects of increasing concentrations of compounds on cell growth were tested in 96-well flat-bottomed microtiter plates. The compounds were diluted in a volume of 100 μL of medium. Afterwards, 1 × 10^4 cells in 100 μL of medium were added to each well, with the exception of the medium control. In the case of NIH/3T3 cells, the compounds were added after seeding the cells at 37 °C overnight. The plates were incubated at 37 °C for 24 h; after the incubation period, 20 μL of MTT solution (from a 5 mg/mL stock) was added to each well. After 4 h of incubation at 37 °C, 100 μL of SDS solution (10% in 0.01 M HCl) was added to each well and the plates were incubated at 37 °C overnight. Cell growth was determined by measuring the optical density (OD) at 540 nm (ref. 630 nm) with a Multiscan EX ELISA reader. Inhibition of cell growth was determined as IC50 values, defined as the inhibitory dose that reduced the growth of the cells exposed to the tested compounds by 50%. IC50 values and the SD of triplicate experiments were calculated by using GraphPad Prism software version 5.00 for Windows with a nonlinear regression curve fit (GraphPad Software, San Diego, CA, USA; www.graphpad.com, accessed on 14 July 2022). Doxorubicin (from a 2 mg/mL stock solution, Teva Pharmaceuticals) was used as the positive control.

A further assay deals with phytopathogenic fungi. Details: method as in PMID 22409377. The note with it: several phytopathogenic fungi; cited from earlier work.
The next assay concerns E. faecalis B3/101. Description: Antibiotic potentiation with vancomycin, broth microdilution. Conditions: Enterococcus faecalis, B3/101, read-out: MIC of vancomycin alone obtained in this study.
A further assay has as its system Enterococcus faecalis. The note with it: E. faecalis B3/101; cited from earlier work.

`CC(C)C[C@@H]1NC(=O)[C@@H](Cc2c[nH]c3ccccc23)n2c1nc1ccc(Br)cc1c2=O` [Compound 13b]: the “RFI ± SD” value in the assay with S. aureus 272123 (compound at 50 μM) came out at 1.53 ± 0.02; with E. coli AG100A, 0.12 ± 0.05; in the assay with E. coli AG100 [1] it was 0.52 ± 0.18. The minimal inhibitory concentration (MIC) (in general, the smallest concentration in the dilution series that meets the test's criterion for growth inhibition) in the assay on S. aureus MRSA 272123 was > 100 µM.

`Cc1ccc2nc3n(c(=O)c2c1)[C@H](Cc1c[nH]c2ccccc12)C(=O)N[C@H]3C(C)C` [Compound 13c]: the “RFI ± SD” value was found to be 0.94 ± 0.04 with S. aureus 272123 (compound at 50 μM), 0.13 ± 0.05 in the assay on E. coli AG100A and 0.17 ± 0.02 in the assay with E. coli AG100 [1]. In the assay on S. aureus MRSA 272123, the MIC is 100 µM and 40 µg/mL.

Take `O=C1N[C@@H](Cc2ccc(OCc3ccccc3)cc2)c2nc3c(Cl)cc(Cl)cc3c(=O)n2[C@@H]1Cc1c[nH]c2ccccc12` [Compound 13d]: the entries for the “RFI ± SD” value in the assay on S. aureus 272123 (compound at 50 μM), in the assay with E. coli AG100A and with E. coli AG100 [1] were 0.19 ± 0.08, 0.55 ± 0.29 and −0.01 ± 0.03, respectively. Further, in the assay with S. aureus MRSA 272123, the minimal inhibitory concentration (MIC) was > 100 µM. Also, the “decrease in biofilm formation” value in the assay with E. coli AG100 [2] was determined as 61%.

`COc1cccc2c1C(=O)c1c(O)c3c(c(O)c1C2=O)C[C@@](O)(C(=O)CO)C[C@@H]3O[C@H]1C[C@H](N)[C@H](O)[C@H](C)O1` [DOXO, Doxorubicin, reference compound]: the IC50 (usually the concentration that inhibits the measured activity by half) in [3] is 3.72 ± 0.15 µM.

Consider `COC(=O)[C@H]1[C@H]2C[C@@H]3c4[nH]c5cc(OC)ccc5c4CCN3C[C@H]2C[C@@H](OC(=O)c2cc(OC)c(OC)c(OC)c2)[C@@H]1OC` [RES, reserpine, reference compound], for which the “RFI ± SD” value in the assay on S. aureus 272123 (compound at 25 μM) worked out at 0.68 ± 0.05.

On to `C[C@@H]1N[C@H]2N(C1=O)c1ccccc1[C@@]2(O)C[C@@H]1C(=O)N[C@@H](C)c2nc3ccccc3c(=O)n21` [fumiquinazoline A], for which the MIC in the assay on phytopathogenic fungi was 12.5 to 25 µg/mL.

For the compound `C[C@H]1NC(=O)[C@@H](Cc2c[nH]c3ccccc23)n2c1nc1ccccc1c2=O` [fumiquinazoline G], the MIC in the assay on phytopathogenic fungi was 12.5 to 25 µg/mL.

As for `CN[C@H](CC(C)C)C(=O)N[C@H]1C(=O)N[C@@H](CC(N)=O)C(=O)N[C@H]2C(=O)N[C@H]3C(=O)N[C@H](C(=O)N[C@H](C(=O)O)c4cc(O)cc(O)c4-c4cc3ccc4O)[C@H](O)c3ccc(c(Cl)c3)Oc3cc2cc(c3O[C@@H]2O[C@H](CO)[C@@H](O)[C@H](O)[C@H]2O[C@H]2C[C@](C)(N)[C@H](O)[C@H](C)O2)Oc2ccc(cc2Cl)[C@H]1O` [vancomycin, reference compound], the results for the minimum inhibitory concentration (MIC) in the assay with E. faecalis B3/101 and with Enterococcus faecalis were 516 µg/mL and 1024 µg/mL (≈ 707 µM), respectively.
